From ChEMBL document CHEMBL1137419, “Identification of potent 5-pyrimidinyl-2-aminothiazole CDK4, 6 inhibitors with significant selectivity over CDK1, 2, 5, 7, and 9” (Bioorg Med Chem Lett, 2006)
pIC50: −log10 of the molar value.

How the values were obtained:
[1] = target: Cyclin-dependent kinase 5 (Homo sapiens, UniProt Q00535); experiment: Inhibition of CDK5
[2] = target: T1, Cyclin-dependent kinase 4 (Homo sapiens, UniProt P11802); experiment: Inhibition of pRb phosphorylation at Ser780 residue by CDK4; assay type: functional; settings: concentration not given here
EOL1 [3] = experiment: Inhibition of BrdU incorporation in Eol1 xenografted in nude rat at 510 nM, iv after 24 hrs; assay type: functional, Homo sapiens
[4] = target: Cyclin-dependent kinase 6 (Homo sapiens) (UniProt Q00534); experiment: Inhibition of pRb phosphorylation at Ser780 residue by CDK6; assay type: functional; settings: concentration not given here
EOL1 [5] = experiment: Cell cycle arrest in Eol1 cells by accumulation at G1 phase; assay type: functional, Homo sapiens
EOL1 [6] = experiment: Inhibition of pRb phosphorylation in Eol1 xenografted in nude rat at 510 nM, iv after 24 hrs; assay type: functional, Homo sapiens
[7] = target: Cyclin-dependent kinase 1 (Homo sapiens, UniProt P06493); experiment: Inhibition of CDK1
[8] = target: Cyclin-dependent kinase 9 (Homo sapiens, UniProt P50750); experiment: Inhibition of CDK9
[9] = target: Cyclin-dependent kinase 2 (Homo sapiens, UniProt P24941); experiment: Inhibition of CDK2
[10] = target: Cyclin-dependent kinase 7 (Homo sapiens, UniProt P50613); experiment: Inhibition of CDK7
[11] = target: T1, Cyclin-dependent kinase 4; experiment: Inhibition of CDK4

Cyclin-dependent kinase 7, sequence (P50613 whole entry): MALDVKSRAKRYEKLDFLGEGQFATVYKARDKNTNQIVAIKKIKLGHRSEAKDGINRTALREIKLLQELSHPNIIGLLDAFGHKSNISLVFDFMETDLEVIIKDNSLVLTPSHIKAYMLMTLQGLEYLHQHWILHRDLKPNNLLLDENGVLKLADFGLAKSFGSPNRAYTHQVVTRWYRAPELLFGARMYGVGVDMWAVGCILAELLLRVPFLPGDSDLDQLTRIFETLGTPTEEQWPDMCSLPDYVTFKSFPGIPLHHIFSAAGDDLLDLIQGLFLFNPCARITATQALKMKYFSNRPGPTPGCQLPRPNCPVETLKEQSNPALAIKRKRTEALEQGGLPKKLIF
T1 sequence (P11802 whole entry): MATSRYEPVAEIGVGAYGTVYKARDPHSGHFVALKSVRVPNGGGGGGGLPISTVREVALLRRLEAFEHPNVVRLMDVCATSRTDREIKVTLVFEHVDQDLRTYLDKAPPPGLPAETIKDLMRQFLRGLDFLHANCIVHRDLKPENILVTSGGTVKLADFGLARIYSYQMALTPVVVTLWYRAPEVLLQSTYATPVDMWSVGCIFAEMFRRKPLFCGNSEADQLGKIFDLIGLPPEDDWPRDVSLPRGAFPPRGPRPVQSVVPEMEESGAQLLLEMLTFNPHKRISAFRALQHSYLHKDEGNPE
Cyclin-dependent kinase 5, sequence (Q00535 whole entry): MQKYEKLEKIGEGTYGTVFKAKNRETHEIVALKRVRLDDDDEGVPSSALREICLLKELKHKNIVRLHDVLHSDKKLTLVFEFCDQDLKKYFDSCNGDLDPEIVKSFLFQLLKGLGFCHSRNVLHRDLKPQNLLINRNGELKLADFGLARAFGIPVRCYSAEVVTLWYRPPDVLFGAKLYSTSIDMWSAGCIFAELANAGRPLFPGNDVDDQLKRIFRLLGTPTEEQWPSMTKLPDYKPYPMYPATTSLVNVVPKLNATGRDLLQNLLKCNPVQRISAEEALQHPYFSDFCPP
Cyclin-dependent kinase 9, sequence (P50750 whole entry): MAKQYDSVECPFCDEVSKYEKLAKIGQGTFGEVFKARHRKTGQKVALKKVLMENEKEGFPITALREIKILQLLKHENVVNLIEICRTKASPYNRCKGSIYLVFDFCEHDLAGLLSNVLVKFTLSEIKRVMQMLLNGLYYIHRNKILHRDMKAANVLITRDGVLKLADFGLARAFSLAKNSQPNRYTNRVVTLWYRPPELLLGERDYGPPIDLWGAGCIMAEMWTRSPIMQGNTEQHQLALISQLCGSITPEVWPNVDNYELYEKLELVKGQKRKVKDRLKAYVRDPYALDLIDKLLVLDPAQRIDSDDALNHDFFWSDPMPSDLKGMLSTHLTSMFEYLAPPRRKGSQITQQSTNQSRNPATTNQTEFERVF
Cyclin-dependent kinase 1, sequence (P06493 whole entry): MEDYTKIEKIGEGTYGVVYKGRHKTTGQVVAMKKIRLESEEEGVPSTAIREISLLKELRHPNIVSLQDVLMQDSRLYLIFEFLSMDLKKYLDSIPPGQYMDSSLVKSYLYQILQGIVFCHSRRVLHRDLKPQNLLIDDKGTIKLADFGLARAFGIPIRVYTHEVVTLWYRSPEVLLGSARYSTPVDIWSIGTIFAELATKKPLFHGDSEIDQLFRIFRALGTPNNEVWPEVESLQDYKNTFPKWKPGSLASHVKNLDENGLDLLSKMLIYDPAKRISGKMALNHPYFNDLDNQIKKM
Cyclin-dependent kinase 6 (Homo sapiens), sequence (Q00534 whole entry): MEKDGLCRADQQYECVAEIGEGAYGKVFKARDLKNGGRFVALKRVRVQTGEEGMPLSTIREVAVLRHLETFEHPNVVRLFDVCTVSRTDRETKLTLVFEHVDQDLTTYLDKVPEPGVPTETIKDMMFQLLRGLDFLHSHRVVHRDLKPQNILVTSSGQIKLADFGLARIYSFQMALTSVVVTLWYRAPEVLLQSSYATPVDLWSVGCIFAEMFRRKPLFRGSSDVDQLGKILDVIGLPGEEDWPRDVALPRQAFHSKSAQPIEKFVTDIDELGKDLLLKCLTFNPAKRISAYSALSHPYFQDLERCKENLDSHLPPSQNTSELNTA

Compound	pIC50 [1]	inhibition [2] [%]	Inhibition (EOL1 [3]) [%]	inhibition [4] [%]	Activity (EOL1 [5]) [%]	Inhibition (EOL1 [6]) [%]	pIC50 [7]	pIC50 [8]	pIC50 [9]	pIC50 [10]	pIC50 [11]
Cc1cc(-c2cnc(Nc3cnc(CN4CCN(C)CC4)cn3)s2)nc(OC2CCCCC2)n1	5.52	> 80	91	> 80	90	99	–	–	–	–	–
c1ccc(Nc2ncc(-c3ccnc(OC4CCCCC4)n3)s2)nc1	7.47	–	–	–	–	–	7.62	8.60	7.85	7.70	8.38
Cc1cnc(OC2CCCCC2)nc1-c1cnc(Nc2ccccn2)s1	< 5.00	–	–	–	–	–	< 6.00	7.59	6.57	6.72	7.89
Cc1cc(-c2cnc(Nc3ccccn3)s2)nc(OC2CCCCC2)n1	< 5.00	–	–	–	–	–	< 5.00	< 5.00	< 5.00	< 5.00	7.47
